Measurements taken from PubChem BioAssay (NCI).
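Compound exposure: 48 hours, 5 concentrations, 96-well plates. GI50 = concentration required for 50% inhibition of growth. TGI: concentration producing complete growth inhibition.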

Columns and labels:
Assay in all cases: growth of human tumour cells (NCI), 48 h
SF-295 CNS = system: SF-295 CNS
HOP-62 NSCLC = system: HOP-62 NSCLC
MDA-MB-231 breast = system: MDA-MB-231 breast
KM12 colon = system: KM12 colon
NCI-H522 lung = system: NCI-H522 lung
SK-MEL-5 melanoma = system: SK-MEL-5 melanoma
MALME-3M melanoma = system: MALME-3M melanoma
SK-MEL-2 melanoma = system: SK-MEL-2 melanoma
HL-60(TB) leukemia = system: HL-60(TB) leukemia
SK-OV-3 ovarian = system: SK-OV-3 ovarian

SMILES	GI50 (SF-295 CNS) [µM]	TGI (SF-295 CNS) [µM]	GI50 (HOP-62 NSCLC) [µM]	TGI (HOP-62 NSCLC) [µM]	GI50 (MDA-MB-231 breast) [nM]	TGI (MDA-MB-231 breast) [µM]	GI50 (KM12 colon) [µM]	TGI (KM12 colon) [µM]	GI50 (NCI-H522 lung) [nM]	TGI (NCI-H522 lung) [µM]	GI50 (SK-MEL-5 melanoma) [nM]	TGI (SK-MEL-5 melanoma) [µM]	GI50 (MALME-3M melanoma) [nM]	TGI (MALME-3M melanoma) [µM]	GI50 (SK-MEL-2 melanoma) [nM]	TGI (SK-MEL-2 melanoma) [µM]	GI50 (HL-60(TB) leukemia) [µM]	TGI (HL-60(TB) leukemia) [µM]	GI50 (SK-OV-3 ovarian) [µM]	TGI (SK-OV-3 ovarian) [µM]
CC(C)Oc1cc(OCC(=O)O)cc(C(=O)N(CCC(N)=O)C(=O)Nc2ccc(C(=O)O)cc2OC(C)C)c1	> 100	> 100	> 100	> 100	> 100000	> 100	> 100	> 100	> 100000	> 100	> 100000	> 100	> 100000	> 100	> 100000	> 100	> 100	> 100	> 100	> 100
C=C1C(=O)O[C@@H]2[C@@H]3O[C@@](C)(CC/C=C(\C)CCC[C@@H]2C)[C@H](O)C[C@@H]13		27.6		24	2390	7.18		24.6	2110	4.5	1720	3.49	1760	4.11	2410	4.85		8.1	13.1	25.8
